Holding throughout (assay type): cell-based
In experiment [1] the target is T1, long form of human GPR120 (Homo sapiens, UniProt Q5NUL3).
T1 construct: host or cells: PathHunter CHO-K1 GPR120 β-Arrestin Cell Line
Briefly: Human GPR120 DiscoveRx PathHunter Beta-Arrestin assay, Procedure β-arrestin A. The method in brief: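 PathHunter CHO-K1 cells expressing long-form human GPR120 (3000/well) were seeded overnight. They were then preincubated 60 min in HBSS with 20 mM HEPES and 0.1% BSA, pH 7.4, and exposed to compound for 90 min at 37 °C. β-Arrestin recruitment was read as β-gal complementation luminescence. EC50 came from % activity versus positive control, Hill slope fixed at 1.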

The target of experiment [2] is T2, Human GPR120 short form (Homo sapiens, UniProt Q5NUL3).
T2 construct: expressed in transfected cells
T2 sequence (Q5NUL3 1-361): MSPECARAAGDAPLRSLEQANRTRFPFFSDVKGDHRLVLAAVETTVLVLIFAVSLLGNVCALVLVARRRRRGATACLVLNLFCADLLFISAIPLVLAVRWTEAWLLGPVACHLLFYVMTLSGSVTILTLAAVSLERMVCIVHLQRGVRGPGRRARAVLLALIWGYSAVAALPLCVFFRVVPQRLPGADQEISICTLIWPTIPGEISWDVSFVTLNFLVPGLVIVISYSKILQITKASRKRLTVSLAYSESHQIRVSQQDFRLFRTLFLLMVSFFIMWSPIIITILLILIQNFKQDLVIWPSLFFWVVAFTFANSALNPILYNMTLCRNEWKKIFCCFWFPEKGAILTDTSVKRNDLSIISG
Briefly: Human GPR120 calcium flux assay, Procedure Calcium B (4200 cells/well). In outline: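 HEK293 cells stably expressing human GPR120 (NM_001195755.1), 4200 cells/well, starved 1 h and loaded with Fluo-4 NW plus probenecid. Ligand-evoked calcium flux read on FLIPR for 300 s after a 10 s baseline. RFU = Fmax−Fmin; EC50 from four-parameter concentration-response fit.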

In experiment [3] the target is T3, human GPR40 (Homo sapiens, UniProt O14842).
T3 construct: expressed in transfected cells
T3 sequence (O14842 whole entry): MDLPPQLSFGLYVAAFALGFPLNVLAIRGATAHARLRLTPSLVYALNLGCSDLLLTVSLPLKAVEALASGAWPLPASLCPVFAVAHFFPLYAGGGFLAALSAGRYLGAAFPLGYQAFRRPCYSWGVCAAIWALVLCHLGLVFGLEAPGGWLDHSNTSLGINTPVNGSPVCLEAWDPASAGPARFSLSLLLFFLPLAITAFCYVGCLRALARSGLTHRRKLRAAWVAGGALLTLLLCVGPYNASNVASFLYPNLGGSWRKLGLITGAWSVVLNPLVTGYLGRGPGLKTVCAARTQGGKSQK
The experiment can be described thus: GPR40 calcium flux assay, human GPR40. The following applies: HEK293 cells stably expressing GPR40; table does not say human or rat. The method in brief: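 Cells preincubated 1 h at 37° C. in HBSS, 20 mM HEPES, 0.1% BSA, then Fluo 8 calcium dye 30 min at 37° C. and 15 min at room temperature.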
(In general: A change in cytosolic calcium serves as a functional read-out for many receptors and channels.)

As a reminder, the EC50 is the concentration that produces a half-maximal response.

T1 sequence (Q5NUL3 1-377 isoform Q5NUL3-1): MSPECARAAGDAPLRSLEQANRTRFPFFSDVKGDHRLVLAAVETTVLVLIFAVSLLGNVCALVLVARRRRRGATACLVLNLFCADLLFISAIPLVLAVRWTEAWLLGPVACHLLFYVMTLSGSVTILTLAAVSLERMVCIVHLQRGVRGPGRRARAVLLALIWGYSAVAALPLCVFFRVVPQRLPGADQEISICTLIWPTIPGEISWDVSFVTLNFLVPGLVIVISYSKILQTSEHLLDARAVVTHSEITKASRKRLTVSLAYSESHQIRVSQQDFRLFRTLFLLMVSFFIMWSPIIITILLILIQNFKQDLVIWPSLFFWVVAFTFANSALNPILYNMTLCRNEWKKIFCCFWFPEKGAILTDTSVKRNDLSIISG
T1 sequence (P32121 whole entry partner): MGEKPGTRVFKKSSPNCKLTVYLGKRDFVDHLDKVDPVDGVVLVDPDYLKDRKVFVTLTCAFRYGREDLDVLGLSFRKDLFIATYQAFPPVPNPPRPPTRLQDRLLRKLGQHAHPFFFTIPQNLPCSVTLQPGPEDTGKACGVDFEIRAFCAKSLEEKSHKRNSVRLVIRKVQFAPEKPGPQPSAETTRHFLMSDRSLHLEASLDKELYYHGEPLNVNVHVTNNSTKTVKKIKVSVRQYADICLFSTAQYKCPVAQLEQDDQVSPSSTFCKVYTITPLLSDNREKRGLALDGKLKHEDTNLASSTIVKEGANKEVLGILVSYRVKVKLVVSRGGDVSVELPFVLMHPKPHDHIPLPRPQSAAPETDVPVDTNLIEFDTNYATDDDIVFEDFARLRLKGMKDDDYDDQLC

Turning to `CCC1CCC(COc2ccc(CCC(=O)O)c(C)c2C)=C(c2ccc(Cl)cc2)C1` (stereo not drawn) [Compound 522, 3-[4-[[2-(4-chlorophenyl)-4-ethyl-cyclohexen-1-yl]methoxy]-2,3-dimethyl-phenyl]Propanoic Acid], the EC50 is 853 nM in experiment [1], 714 nM in experiment [2] and > 5000 nM in experiment [3].
As to `CCC1CCC(c2ccc(Cl)cc2)=C(COc2ccc(CCC(=O)O)c(C)c2C)C1` (stereo not drawn) [Compound 502, 3-[4-[[2-(4-chlorophenyl)-5-ethyl-cyclohexen-1-yl]methoxy]-2,3-dimethyl-phenyl]Propanoic Acid], the figures for the EC50 in experiment [1], in experiment [2] and in experiment [3] were 192 nM, 147 nM and > 5000 nM, respectively.
With `COc1ncc(C2=C(COc3c(F)cc(CCC(=O)O)cc3F)CCC2)cc1F` [Compound 224, 3-[3,5-difluoro-4-[[2-(5-fluoro-6-methoxy-3-pyridyl)cyclopenten-1-yl]methoxy]phenyl]Propanoic Acid], the EC50 was 231 nM in experiment [1], 285 nM in experiment [2] and > 5000 nM in experiment [3].
With `Cc1cc(CC(C)C(=O)O)ccc1OCC1=C(c2ccc(Cl)cc2)CCC1` (stereo not drawn) [Compound 36, 3-[4-[[2-(4-chlorophenyl)cyclopenten-1-yl]methoxy]-3-methyl-phenyl]-2-methyl-Propanoic Acid], the EC50 in experiment [1] is 235 nM; in experiment [2], 193 nM; in experiment [3], > 5000 nM.
Regarding `O=C(O)CCc1cc(F)c(OCC2=C(c3ccc(F)cc3F)CC(F)(F)C2)c(F)c1` [Compound 216, 3-[4-[[2-(2,4-difluorophenyl)-4,4-difluoro-cyclopenten-1-yl]methoxy]-3,5-difluoro-phenyl]Propanoic Acid], the EC50 in experiment [1] was 169 nM; in experiment [2], 75 nM; in experiment [3], > 5000 nM.
In the same order, the values of `Cc1c(CCC(=O)O)ccc(OCC2=C(c3ccc(F)cc3)CC(F)C2)c1C` (stereo not drawn) [Compound 100] are 168 nM, 81 nM and > 5000 nM.
Regarding `Cc1cc(CC(C)C(=O)O)ccc1OCC1=C(c2ccc(F)cc2)CCC1` (stereo not drawn) [Compound 160, 3-[4-[[2-(4-fluorophenyl)cyclopenten-1-yl]methoxy]-3-methyl-phenyl]-2-methyl-Propanoic Acid], the EC50 was 528 nM in experiment [1], 215 nM in experiment [2] and > 5000 nM in experiment [3].
In the same order, the values of `Cc1cc(CCC(=O)O)ccc1OCC1=C(c2ccc(F)cc2F)CC(F)(F)C1` [Compound 182, 3-[4-[[2-(2,4-difluorophenyl)-4,4-difluoro-cyclopenten-1-yl]methoxy]-3-methyl-phenyl]Propanoic Acid] are 104 nM, 32 nM and > 5000 nM.
`Cc1cc(OCC2=C(c3ccc(F)cc3)CCC(F)(F)C2)ccc1CCC(=O)O` [Compound 518, 3-[4-[[5,5-difluoro-2-(4-fluorophenyl)cyclohexen-1-yl]methoxy]-2-methyl-phenyl]Propanoic Acid]: the EC50 in experiment [1] turned out to be 639 nM; in experiment [2] it was 255 nM; in experiment [3] it was 3750 nM.
In the same order, the values of `Cc1cc(CCC(=O)O)ccc1OCC1=C(c2ccc(F)cc2)CCC(F)(F)C1` [Compound 498, 3-[4-[[5,5-difluoro-2-(4-fluorophenyl)cyclohexen-1-yl]methoxy]-3-methyl-phenyl]Propanoic Acid] are 219 nM, 96 nM and > 5000 nM.
In the same order, the values of `Cc1ncc(C2=C(COc3ccc(CCC(=O)O)cc3C)CC(F)(F)C2)s1` [Compound 199, 3-[4-[[4,4-difluoro-2-(2-methylthiazol-5-yl)cyclopenten-1-yl]methoxy]-3-methyl-phenyl]Propanoic Acid] are 369 nM, 210 nM and 1470 nM.
In the same order, the values of `Cc1cc(CCC(=O)O)ccc1OCC1=C(c2ccc(Cl)s2)CCC(F)(F)C1` [Compound 542, 3-[4-[[2-(5-chloro-2-thienyl)-5,5-difluoro-cyclohexen-1-yl]methoxy]-3-methyl-phenyl]Propanoic Acid] are 182 nM, 94 nM and 2860 nM.
Regarding `Cc1c(CCC(=O)O)ccc(OCC2=C(c3ccc(F)cc3)CC(F)(F)C2)c1C` [Compound 10], the results for the EC50 in experiment [1], in experiment [2] and in experiment [3] were 155 nM, 24 nM and > 5000 nM, respectively.
In the same order, the values of `O=C(O)CCc1cc(F)c(OCC2=C(c3ccc(F)c(F)c3)CCC(F)(F)C2)c(F)c1` [Compound 533, 3-[4-[[2-(3,4-difluorophenyl)-5,5-difluoro-cyclohexen-1-yl]methoxy]-3,5-difluoro-phenyl]Propanoic Acid] are 532 nM, 309 nM and > 5000 nM.
In the same order, the values of `Cc1cc(CCC(=O)O)ccc1OCC1=C(c2ccccc2)CC(F)(F)C1` [Compound 193, 3-[4-[(4,4-difluoro-2-phenyl-cyclopenten-1-yl)methoxy]-3-methyl-phenyl]Propanoic Acid] are 133 nM, 30 nM and > 5000 nM.
`Cc1cc(CCC(=O)O)ccc1OCC1=C(c2ccc(Cl)cc2)CC(F)(F)CC1` [Compound 566, 3-[4-[[2-(4-chlorophenyl)-4,4-difluoro-cyclohexen-1-yl]methoxy]-3-methyl-phenyl]Propanoic Acid]: the EC50 in experiment [1] was 209 nM; in experiment [2], 165 nM; in experiment [3], 3340 nM.
In the same order, the values of `Cc1ncc(C2=C(COc3ccc(CCC(=O)O)c(C)c3C)CC(F)(F)CC2)s1` [Compound 553, 3-[4-[[5,5-difluoro-2-(2-methylthiazol-5-yl)cyclohexen-1-yl]methoxy]-2,3-dimethyl-phenyl]Propanoic Acid] are 727 nM, 525 nM and 2340 nM.
In the same order, the values of `CCOc1ccc(C2=C(COc3ccc(CCC(=O)O)cc3C)CCC2)cn1` [Compound 225, 3-[4-[[2-(6-ethoxy-3-pyridyl)cyclopenten-1-yl]methoxy]-3-methyl-phenyl]Propanoic Acid] are 588 nM, 530 nM and > 5000 nM.
In the same order, the values of `Cc1cc(CCC(=O)O)ccc1OCC1=C(c2cnn(C)c2)CCC(F)(F)C1` [Compound 546, 3-[4-[[5,5-difluoro-2-(1-methylpyrazol-4-yl)cyclohexen-1-yl]methoxy]-3-methyl-phenyl]Propanoic Acid] are 1650 nM, 754 nM and 2350 nM.
Turning to `Cc1c(CCC(=O)O)ccc(OCC2=C(c3ccc(C#N)s3)CCC(F)(F)C2)c1C` [Compound 558, 3-[4-[[2-(5-cyano-2-thienyl)-5,5-difluoro-cyclohexen-1-yl]methoxy]-2,3-dimethyl-phenyl]Propanoic Acid], the concentration giving a half-maximal response (EC50) in experiment [1] was 1310 nM; in experiment [2] it was 381 nM; in experiment [3], > 5000 nM.

Source of the values: patent US11230526B1, “Cylcoalkenyl derivatives useful as agonists of the GPR120 and/or GPR40 receptors” (Janssen Pharmaceutica NV, priority 2018, dated 2022).
